Patent US20250154112A1, “A PREPARATION OF QUINAZOLINEDIONES AND USE THEREOF” (COUNCIL OF SCIENTIFIC AND INDUSTRIAL RESEARCH AN INDIAN …, priority 2021, published 2025)
≈ marks a conversion by molar mass, not a printed value.

Assays:
[1] = Kinetic solubility; format: physicochemical; conditions: pH 7.4 phosphate buffer (PBS), aqueous buffer, kinetic from dmso stock, room temperature, 1.0% DMSO
Procedure: PBS sachet was dissolved in 0.9 L of Milli Q water and pH was adjusted to 7.4. Final volume was made up to 1 L with the water and stored at ambient temperature 21-25° C. […] 4 μL from the 50 mM stock solution were added to deep well plate containing 396 μL of pH 7.4 phosphate buffer, mixed and incubated for 24 hours at room temperature with constant mixing at 300 rpm. The plate was sealed well during the incubation process. After incubation, the samples were centrifuged for 20 min at 4000 rpm. The supernatant was analysed by HPLC-UV. The DMSO content in the sample was 1.0%. The final concentration of the compound in deep well plate was 500 μM.

[2] = Plasma stability assay; format: in vitro ADME; conditions: 1 μM, 37° C.
Procedure: 1 mM Stock of test compound was prepared from 10 mM initial stock solution of compounds by diluting 10 μL of 10 mM stock with 90 μL of DMSO. Then 10 μL of 1 mM stock was diluted with 90 μL of DMSO to give 100 μM concentration. The frozen plasma was thawed at room temperature and centrifuged at 1400 rpm at 4° C., for 15 minutes. Approximately 90% of the clear supernatant fraction was transferred to a separate tube and was used for the assay. Final working stock of 1 μM was prepared by diluting 3 μL of 100 μM with 297 μL of plasma. Plasma containing the test compound was incubated for 120 min at 37° C. in shaker with 500 rpm. 50 μL of aliquot of sample at 0, 15, 30, 60 and 120 minutes were precipitated with 150 μL of acetonitrile containing internal standard and centrifuged at 4000 rpm at 4° C. for 20 minutes. 120 μL of supernatant was diluted with 120 μL of water and analysed by LC-MS/MS.

[3] = system: ubiquitination of ATGL by COP1; assay: Immunoprecipitation assay of ATGL ubiquitination status in HepG2 cells; format: cell-based; conditions: HepG2 cells overexpressing myc-ATGL, HA-Ubiquitin, 5 μM, MG-132, compared with control
Procedure: To this end, an immunoprecipitation assay was performed wherein HepG2 cells overexpressing myc-ATGL were transfected with HA-Ubiquitin and treated with 5 μM of the compounds 5, 62, and 94.MG-132, a proteasomal inhibitor, was added4 hours before harvesting the cells. Immune complexes were pulled down with anti-myc antibody and immunoblot was done using anti-HA antibody. The resultant smears on the blot reflect the ubiquitination status of ATGL.

[4] = target: T1, COP1 (Homo sapiens, UniProt Q8NHY2); assay: Western blot of COP1 level in HepG2 cells after compound treatment; format: cell-based; conditions: 5 μM, 24 hours
T1 construct: endogenous in cells; host or cells: HepG2
Procedure: HepG2 cells were treated with the compounds 5, 8, 11, 59, 62, 65, 91, 94 at 5 μM for 24 hours. After removing media from the cells, the wells were washed with 1×PBS twice to remove any remnant media. Cells were then lysed in lysis buffer containing 50 mM Tris-HCl (pH 7.4), 100 mM NaCl, 1 mM EDTA, 1 mM EGTA, 1% Triton X-100 and protease inhibitor cocktail 1 (Millipore, Billierica, MA, USA). Following centrifugation at 20,000 g for 20 minutes, the protein solution was extracted from the cells. Protein was estimated using Bradford assay. Bradford's reagent (BioRad) was diluted in 1:4 ratio in double distilled water. 2 μl of protein sample was added to 100 μl of the reagent and absorbance was measured at 595 nm. 30 μg of protein was diluted in lysis buffer. 1X loading buffer diluted from 5X stock containing 250 mM Tris-HCl (pH 6.8), 10% SDS, 50% glycerol, 0.1% bromophenol Blue and 10% β-mercaptoethanol was added. The protein samples were then heated at 95° C. for 10 minutes, cooled and centrifuged at 12,000 g for 2 minutes prior to loading.
For western blotting, the proteins were resolved in 10% SDS PAGE (discontinuous buffer system). 1X running buffer containing SDS, Tris Base and Glycine was used to run the gel at 80V for approximately 2 hours. Transfer was done using PVDF membrane (Millipore) having pore size of 0.45 μm. 1X transfer buffer containing Tris-Base, Glycine and 20% methanol was used for wet transfer. Transfer was done at 90V for 3 hours. Following transfer, the PVDF membrane containing the proteins were washed in 1×PBST comprising of 1×PBS and 1% Tween 20 (Sigma Aldrich). The membrane was then incubated for 1 hour at room temperature in 5% skim milk powder to block the non-specific sites. Following multiple washes with 1×PBST to wash away any remaining blocking buffer, the required primary antibody (COP1 [BethylLaboraties], ATGL [Cell Signalling Technology] or Actin[Cell Signalling Technology]) prepared with 1×PBST, 1% Bovine Serum Albumin and 0.04% Sodium Azide was added to the membrane and incubated overnight at 4° C. The next day, the membrane was again washed multiple times with 1×PBST to remove any unbound primary antibody. The membrane was then incubated with goat anti-rabbit secondary antibody (Genei) for 1 hour at room temperature and washed again for multiple times with 1×PBST. The membrane was then developed using Clarity™ ECL Western Blotting Substrate (BioRad) and viewed in ChemiDoc (BioRad).

[5] = system: ATGL; assay: Fold change in ATGL by densitometric analysis; format: cell-based; conditions: fold change of ATGL with respect to control, normalized with actin
Procedure: Densitimetric analysis was performed by image J to calculate the fold change of ATGL with respect to control. The values were normalized with actin.

[6] = Lipophilicity assay (octanol/buffer Log D); format: physicochemical; conditions: pH 7.4, n-octanol/sodium phosphate buffer
Procedure: 1.56 g NaH2PO4·2H2O was dissolved in 0.5 L water in a 1 L beaker. After adjusting pH to 7.4 using NaOH solution, the volume was made up to 1 L. Equal volumes of sodium phosphate buffer (10 mM, pH 7.4) and n-octanol were added to a separation funnel and mixed thoroughly by shaking and inverting the funnel several times. The two layers were allowed to separate for overnight and then dispensed in two separate glass bottles. 10 mM stock solution was prepared in 100% DMSO and stored at 4° C. 495 μL of organic phase (1-octanol) was added to each well of a 2 mL deep well plate, followed by 495 μL of buffer and 10 μL of test substance was added. The plate was incubated for 3 hrs at room temperature on a plate shaker at 500 rpm. After incubation, the samples were allowed to equilibrate for 20 min and then centrifuged at 4000 rpm for 30 min for complete phase separation and analysed by LC-UV. Log D=Log (area of octanol/area of buffer)

T1 sequence (Q8NHY2 whole entry): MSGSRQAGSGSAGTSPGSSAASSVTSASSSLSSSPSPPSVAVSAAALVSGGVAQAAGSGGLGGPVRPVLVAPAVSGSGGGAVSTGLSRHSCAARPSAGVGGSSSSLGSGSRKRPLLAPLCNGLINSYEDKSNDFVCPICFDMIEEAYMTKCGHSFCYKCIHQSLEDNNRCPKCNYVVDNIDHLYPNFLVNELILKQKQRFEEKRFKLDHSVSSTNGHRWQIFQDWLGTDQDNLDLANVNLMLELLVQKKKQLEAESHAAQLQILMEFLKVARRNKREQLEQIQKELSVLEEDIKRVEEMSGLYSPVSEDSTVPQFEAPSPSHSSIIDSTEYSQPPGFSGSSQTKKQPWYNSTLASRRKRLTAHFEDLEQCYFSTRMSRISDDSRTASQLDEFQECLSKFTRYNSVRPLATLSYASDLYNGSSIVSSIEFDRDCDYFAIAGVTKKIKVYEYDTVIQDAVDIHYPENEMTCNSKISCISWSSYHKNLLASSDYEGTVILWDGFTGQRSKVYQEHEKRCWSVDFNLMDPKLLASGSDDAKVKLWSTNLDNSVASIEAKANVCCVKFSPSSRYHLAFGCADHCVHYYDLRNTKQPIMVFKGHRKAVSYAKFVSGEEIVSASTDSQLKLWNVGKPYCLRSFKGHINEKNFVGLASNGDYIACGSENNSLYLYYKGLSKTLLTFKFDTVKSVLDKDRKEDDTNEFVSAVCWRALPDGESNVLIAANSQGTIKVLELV

COCCn1c(=O)c2cc(NC(=O)Nc3cccc(C(C)=O)c3)ccc2n(CCCN2CCOCC2)c1=O [Compound 94, 1-(3-acetylphenyl)-3-(3-(2-methoxyethyl)-1-(3-morpholinopropyl)-2,4-dioxo-1,2,3,4-tetrahydroquinazolin-6-yl)urea]
solubility kinetic at 24 hours [1]: 89.9 µg/mL (≈ 172 µM)
Mean % remaining at 2 hrs in human Plasma [2]: 51.74%
ubiquitination status of ATGL (poly-Ubiquitin smear) [3]: no such effect
stabilization of COP1 (Western Blot) [4]: stabilize the COP1
Fold change [5]: 0.84
logD [6]: 0.97

COCCn1c(=O)c2cc(NC(=O)Nc3cccc(C(C)=O)c3)ccc2n(CCN2CCCCC2)c1=O [Compound 62, 1-(3-acetylphenyl)-3-(3-(2-methoxyethyl)-2,4-dioxo-1-(2-(piperidin-1-yl)ethyl)-1,2,3,4-tetrahydroquinazolin-6-yl)urea]
solubility kinetic at 24 hours [1]: 116 µg/mL (≈ 228 µM)
Mean % remaining at 2 hrs in human Plasma [2]: 26.18%
ubiquitination status of ATGL (poly-Ubiquitin smear) [3]: stark reduction in the ubiquitination smear
stabilization of COP1 (Western Blot) [4]: stabilize the COP1
Fold change [5]: 1.55
LogD @ pH 7.4 [6]: 2.78

COCCn1c(=O)[nH]c2ccc(NC(=O)Nc3cccc(C(C)=O)c3)cc2c1=O [Compound 5, 1-(3-acetylphenyl)-3-(3-(2-methoxyethyl)-2,4-dioxo-1,2,3,4-tetrahydroquinazolin-6-yl)urea]
solubility kinetic at 24 hours [1]: 0.8 µg/mL (≈ 2.02 µM)
Mean % remaining at 2 hrs in human Plasma [2]: 97.40%
ubiquitination status of ATGL (poly-Ubiquitin smear) [3]: stark reduction in the ubiquitination smear
stabilization of COP1 (Western Blot) [4]: stabilize the COP1
Fold change [5]: 1.44
LogD @ pH 7.4 [6]: 2.17
